Data reported in PubChem BioAssay (NCI).
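A five-concentration, 48-hour dose response in 96-well plates underlies each endpoint, interpolated linearly between surrounding concentrations. The concentration for full growth arrest is given as TGI.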

What was measured:
Test in all cases: NCI tumour cell line growth inhibition, 48 h
[1] = system: 786-0 renal
[2] = system: A549 NSCLC
[3] = system: ACHN renal
[4] = system: CCRF-CEM leukemia
[5] = system: COLO 205 colon
[6] = system: DLD-1 colon
[7] = system: DMS 273 small cell lung
[8] = system: EKVX NSCLC
[9] = system: HCC-2998 colon
[10] = system: HCT-116 colon
[11] = system: HCT-15 colon
[12] = system: HL-60(TB) leukemia
[13] = system: HOP-18 NSCLC
[14] = system: HOP-62 NSCLC
[15] = system: HOP-92 NSCLC
[16] = system: HT29 colon
[17] = system: IGROV1 ovarian
[18] = system: K-562 leukemia
[19] = system: KM12 colon
[20] = system: KM20L2 colon
[21] = system: LOX IMVI melanoma
[22] = system: LXFL 529 NSCLC
[23] = system: M14 melanoma
[24] = system: M19-MEL melanoma
[25] = system: MALME-3M melanoma
[26] = system: MOLT-4 leukemia
[27] = system: NCI-H226 lung
[28] = system: NCI-H23 lung
[29] = system: NCI-H460 lung
[30] = system: NCI-H522 lung
[31] = system: OVCAR-3 ovarian
[32] = system: OVCAR-4 ovarian
[33] = system: OVCAR-5 ovarian
[34] = system: OVCAR-8 ovarian
[35] = system: RPMI-8226 leukemia
[36] = system: RXF 393 renal
[37] = system: RXF-631 renal
[38] = system: SF-295 CNS
[39] = system: SF-539 CNS
[40] = system: SK-MEL-2 melanoma
[41] = system: SK-MEL-28 melanoma
[42] = system: SK-MEL-5 melanoma
[43] = system: SK-OV-3 ovarian
[44] = system: SN12C renal
[45] = system: SNB-19 CNS
[46] = system: SNB-75 CNS
[47] = system: SR leukemia
[48] = system: SW-620 colon
[49] = system: TK-10 renal
[50] = system: U251 CNS
[51] = system: UACC-257 melanoma
[52] = system: UACC-62 melanoma
[53] = system: UO-31 renal
[54] = system: XF 498 CNS

Measured: TGI

COC(=O)c1sc(=O)n(-c2ccccc2)c1SCc1ccccc1
> 100 µM: [1] | [2] | [3] | [4] | [5] | [6] | [7] | [8] | [9] | [10] | [11] | [12] | [13] | [14] | [15] | [16] | [17] | [18] | [19] | [20] | [21] | [22] | [23] | [24] | [25] | [26] | [27] | [28] | [29] | [30] | [31] | [32] | [33] | [34] | [35] | [36] | [37] | [38] | [39] | [40] | [41] | [42] | [43] | [44] | [45] | [46] | [47] | [48] | [49] | [50] | [51] | [52] | [53] | [54]
